PubChem BioAssay AID248 (DTP/NCI, 2004)
Several values for one entry are separate records, joined by “and”; a condition that tells them apart may be missing. Equal values may be shown once. Toxic doses and inconclusive results are not listed. Rule as the data show it: active = T/C of 150% or more; inactive = T/C below 125%.

Test system: L1210 leukemia ip in BDF1 mice, survival T/C
Experiment: NCI In Vivo Anticancer Drug Screen. Data for tumor model L1210 Leukemia (intraperitoneal) in B6D2F1 (BDF1) mice
Conditions: endpoint: mean survival time, higher = longer survival
In short: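 Value reflects the ratio of survival in compound-treated mice to survival in vehicle-treated controls, with both groups carrying the same transplanted tumor.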

[1] = dose: 100.0 mg/kg/injection, schedule: Q01DX001 (ip), vehicle: Klucel (hydroxypropylcellulose) (HPC)
[2] = dose: 200.0 mg/kg/injection, schedule: Q01DX001 (ip), vehicle: Klucel (hydroxypropylcellulose) (HPC)
[3] = dose: 100.0 mg/kg/injection, schedule: Q01DX001 (ip), vehicle: saline
[4] = dose: 200.0 mg/kg/injection, schedule: Q01DX001 (ip), vehicle: saline
[5] = dose: 50.0 mg/kg/injection, schedule: Q01DX009 (ip), vehicle: Klucel (hydroxypropylcellulose) (HPC)
[6] = dose: 100.0 mg/kg/injection, schedule: Q01DX009 (ip), vehicle: Klucel (hydroxypropylcellulose) (HPC)
[7] = dose: 50.0 mg/kg/injection, schedule: Q01DX001 (ip), vehicle: saline
[8] = dose: 50.0 mg/kg/injection, schedule: Q01DX009 (ip), vehicle: saline with Tween-80
[9] = dose: 100.0 mg/kg/injection, schedule: Q01DX009 (ip), vehicle: saline with Tween-80
[10] = dose: 200.0 mg/kg/injection, schedule: Q01DX009 (ip), vehicle: saline with Tween-80
[11] = dose: 100.0 mg/kg/injection, schedule: Q01DX001 (ip), vehicle: saline with Tween-80
[12] = dose: 200.0 mg/kg/injection, schedule: Q01DX001 (ip), vehicle: saline with Tween-80
[13] = dose: 400.0 mg/kg/injection, schedule: Q01DX001 (ip), vehicle: saline with Tween-80
[14] = dose: 100.0 mg/kg/injection, schedule: Q04DX003 (ip), vehicle: saline
[15] = dose: 200.0 mg/kg/injection, schedule: Q04DX003 (ip), vehicle: saline
[16] = dose: 400.0 mg/kg/injection, schedule: Q04DX003 (ip), vehicle: saline
[17] = dose: 25.0 mg/kg/injection, schedule: Q01DX009 (ip), vehicle: saline with Tween-80
[18] = dose: 400.0 mg/kg/injection, schedule: Q01DX009 (ip), vehicle: saline with Tween-80

Measured: T/C

O=C(Nc1ccc([N+](=O)[O-])cc1)C(Cl)(Cl)Cl
inactive: dose: 50.0 mg/kg/injection, schedule: Q01DX001 (ip), vehicle: Klucel (hydroxypropylcellulose) (HPC) 94 % of control | [1] 95 % of control | [2] 97 % of control

c1ccc2cc(NCNc3ccc4ccccc4c3)ccc2c1
inactive: [3] 100 % of control | [4] 95 % of control | dose: 400.0 mg/kg/injection, schedule: Q01DX001 (ip), vehicle: saline 100 % of control

O=C1N(Cl)C(=O)C(c2ccccc2)(c2ccc(F)cc2)N1Cl (stereo not drawn)
inactive: [5] 94 % of control | [6] 94 % of control | dose: 100.0 mg/kg/injection, schedule: Q04DX003 (ip), vehicle: Klucel (hydroxypropylcellulose) (HPC) 96 % of control | dose: 200.0 mg/kg/injection, schedule: Q04DX003 (ip), vehicle: Klucel (hydroxypropylcellulose) (HPC) 94 % of control

Cc1ccnc(NC(=O)Nc2ccccc2Cl)c1
inactive: dose: 100.0 mg/kg/injection, schedule: Q04DX002 (ip), vehicle: Klucel (hydroxypropylcellulose) (HPC) 90 % of control | dose: 200.0 mg/kg/injection, schedule: Q04DX002 (ip), vehicle: Klucel (hydroxypropylcellulose) (HPC) 93 % of control | dose: 400.0 mg/kg/injection, schedule: Q04DX002 (ip), vehicle: Klucel (hydroxypropylcellulose) (HPC) 118 % of control

C[N+](C)(C)Cc1cccc([N+](=O)[O-])c1
inactive: dose: 12.0 mg/kg/injection, schedule: Q01DX009 (ip), vehicle: saline 90 % of control | dose: 25.0 mg/kg/injection, schedule: Q01DX009 (ip), vehicle: saline 92 % of control | [7] 98 % of control | dose: 50.0 mg/kg/injection, schedule: Q01DX009 (ip), vehicle: saline 93 % of control

O=C(OCc1ccccc1CN1CCCC1)c1cccc(Br)c1
inactive: [1] 95 % of control | [2] 98 % of control

COc1ccc(O)c(N=Nc2nccs2)c1
inactive: [8] 109 % of control | [9] 106 % of control | [10] 102 % of control

CCOC(=O)CCSc1ccc(NC(C)=O)cc1
inactive: [11] 103 % of control | [12] 111 % of control | [13] 97 % of control

CCCCCCCCP(=O)(CCCC)CCCCCCCC
inactive: dose: 25.0 mg/kg/injection, schedule: Q01DX001 (ip), vehicle: saline with Tween-80 100 % of control | dose: 50.0 mg/kg/injection, schedule: Q01DX001 (ip), vehicle: saline with Tween-80 101 % of control | [11] 100 % of control and 104 % of control

CC1(C(=O)O)C2C=CC(C2)C1C(=O)O (stereo not drawn)
inactive: [14] 96 % of control | [15] 94 % of control | [16] 102 % of control

O=C(NC(CCl)c1ccccc1)c1ccc([N+](=O)[O-])cc1 (stereo not drawn)
inactive: dose: 75.0 mg/kg/injection, schedule: Q04DX003 (ip), vehicle: Klucel (hydroxypropylcellulose) (HPC) 100 % of control | [1] 98 % of control | dose: 150.0 mg/kg/injection, schedule: Q04DX003 (ip), vehicle: Klucel (hydroxypropylcellulose) (HPC) 103 % of control | [2] 104 % of control | dose: 300.0 mg/kg/injection, schedule: Q04DX003 (ip), vehicle: Klucel (hydroxypropylcellulose) (HPC) 97 % of control | dose: 400.0 mg/kg/injection, schedule: Q01DX001 (ip), vehicle: Klucel (hydroxypropylcellulose) (HPC) 104 % of control

C/C=C(/C(=O)NC(N)=O)C(C)C
inactive: dose: 25.0 mg/kg/injection, schedule: Q01DX009 (ip), vehicle: Klucel (hydroxypropylcellulose) (HPC) 114 % of control | [5] 97 % of control | [6] 111 % of control | dose: 200.0 mg/kg/injection, schedule: Q01DX009 (ip), vehicle: Klucel (hydroxypropylcellulose) (HPC) 103 % of control | dose: 400.0 mg/kg/injection, schedule: Q01DX009 (ip), vehicle: Klucel (hydroxypropylcellulose) (HPC) 103 % of control

COC(=O)c1c[nH]c2cc(OC(C)C)c(OC(C)C)cc2c1=O
inactive: [11] 96 % of control | [12] 91 % of control | [13] 100 % of control

NC(CC(=O)O)C(=O)O.[Cu+2] (stereo not drawn)
inactive: dose: 5.0 mg/kg/injection, schedule: Q01DX009 (ip), vehicle: Klucel (hydroxypropylcellulose) (HPC) 106 % of control | dose: 10.0 mg/kg/injection, schedule: Q01DX009 (ip), vehicle: Klucel (hydroxypropylcellulose) (HPC) 104 % of control | dose: 20.0 mg/kg/injection, schedule: Q01DX009 (ip), vehicle: Klucel (hydroxypropylcellulose) (HPC) 108 % of control | dose: 20.0 mg/kg/injection, schedule: Q04DX003 (ip), vehicle: Klucel (hydroxypropylcellulose) (HPC) 100 % of control

O=C(O)CCC1CCC(=O)OC1=O (stereo not drawn)
inactive: dose: 100.0 mg/kg/injection, schedule: Q01DX009 (ip), vehicle: saline 101 % of control | [14] 98 % of control | dose: 200.0 mg/kg/injection, schedule: Q01DX009 (ip), vehicle: saline 100 % of control | [15] 89 % of control | dose: 400.0 mg/kg/injection, schedule: Q01DX009 (ip), vehicle: saline 99 % of control | [16] 94 % of control

N#C[S-].N#C[S-].[Au+3].[Au+3].[CH3-].[CH3-].[CH3-].[CH3-]
inactive: [8] 96 % of control | [9] 109 % of control | [10] 105 % of control

NC(=O)c1cncc(C(N)=O)c1
inactive: dose: 100.0 mg/kg/injection, schedule: Q04DX002 (ip), vehicle: saline 103 % of control | dose: 200.0 mg/kg/injection, schedule: Q04DX002 (ip), vehicle: saline 95 % of control | dose: 400.0 mg/kg/injection, schedule: Q04DX002 (ip), vehicle: saline 100 % of control

CNC1(c2ccc(F)cc2)CCCCC1
inactive: [7] 98 % of control | [3] 98 % of control

Cn1ncc(C(=O)O)c1N
inactive: [17] 102 % of control | [8] 111 % of control | [9] 100 % of control | [10] 94 % of control | [18] 96 % of control

CN(C)/N=C/c1nccc2ccccc12
inactive: [7] 98 % of control | [3] 93 % of control | [4] 93 % of control

O=C1CC2(CC3(Cl)C(Cl)=C(Cl)C2(Cl)C3(Cl)Cl)C(=O)O1 (stereo not drawn)
inactive: dose: 50.0 mg/kg/injection, schedule: Q01DX001 (ip), vehicle: carboxymethylcellulose (CMC) 100 % of control | dose: 100.0 mg/kg/injection, schedule: Q01DX001 (ip), vehicle: carboxymethylcellulose (CMC) 102 % of control | dose: 200.0 mg/kg/injection, schedule: Q01DX001 (ip), vehicle: carboxymethylcellulose (CMC) 102 % of control | dose: 400.0 mg/kg/injection, schedule: Q01DX001 (ip), vehicle: carboxymethylcellulose (CMC) 102 % of control

[N-]=[N+]=NCc1nnc2ncnc(N)c2n1
inactive: [17] 88 % of control | dose: 25.0 mg/kg/injection, schedule: Q04DX003 (ip), vehicle: saline with Tween-80 94 % of control | dose: 50.0 mg/kg/injection, schedule: Q04DX003 (ip), vehicle: saline with Tween-80 105 % of control | [11] 95 % of control | dose: 100.0 mg/kg/injection, schedule: Q04DX003 (ip), vehicle: saline with Tween-80 102 % of control

CCOC(CS(=O)(=O)CC(N)=O)OCC
inactive: [9] 97 % of control | [10] 95 % of control | [18] 92 % of control
